Laboratory results as given in patent US8658642B2 (Axikin Pharmaceuticals, Inc., priority 2009, dated 2014).

Molecular target: T1, CCR3 (Homo sapiens, UniProt P51677)
T1 sequence (P51677 1-355): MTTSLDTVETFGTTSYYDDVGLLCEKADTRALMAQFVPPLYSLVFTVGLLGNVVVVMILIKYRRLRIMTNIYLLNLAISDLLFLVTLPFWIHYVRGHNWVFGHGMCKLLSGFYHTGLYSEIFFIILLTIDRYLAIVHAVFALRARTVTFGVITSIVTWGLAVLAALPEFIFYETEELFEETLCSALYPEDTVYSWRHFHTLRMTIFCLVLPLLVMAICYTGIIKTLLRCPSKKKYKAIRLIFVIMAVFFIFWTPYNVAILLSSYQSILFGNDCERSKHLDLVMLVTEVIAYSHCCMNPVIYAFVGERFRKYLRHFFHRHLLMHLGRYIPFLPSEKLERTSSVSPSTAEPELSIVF
Assay: CCR3 receptor binding assay ([125I]-labeled human eotaxin/CCL11 displacement on cells)
Conditions: 0.1 nM [125I]-labeled human eotaxin/CCL11, 2×10^5 cells/well, 60 min at room temperature
Method: CCR3 Receptor Binding Assay
Cells were washed once with PBS and resuspended in a binding buffer (25 mM HEPES pH 7.6, 5 mM MgCl2, 1 mM CaCl2, 0.5% BSA, 0.1% NaN3). […] of cell suspension (2×10^5 cells/well) and 0.1 nM [^125I]-labeled human eotaxin/CCL11 (2000 Ci/mmol specific activity) were mixed in a 96-well U-bottom polypropylene plate, and incubated for 60 min at room temperature for the binding reaction. The cell suspension was then transferred to a filtration plate (#MAFB, Millipore), and washed 3 times with the binding buffer containing 0.5 M NaCl, scintillant added, and the radioactivity was counted on a TopCount (Packard). For the determination of non-specific binding, the cell suspension and [^125I]-labeled human eotaxin/CCL11 were incubated in the presence of 500 nM of unlabeled human eotaxin/CCL11. See, lino et al., “Molecular cloning and functional characterization of cynomolgus monkey (Macaca fascicularis) CC chemokine receptor, CCR3,” Cytokine 2002, 19, 276-286.

SMILES | Ki
Cc1cc(C)cc(Oc2ccc(C#N)cc2S(=O)(=O)N2CCN(S(=O)(=O)CC34CCC(CC3=O)C4(C)C)CC2)c1 (stereo not shown) [Compound 51] | > 5 µM
Cc1cc(C)cc(Oc2ccc(C#N)cc2S(=O)(=O)N2CCN(C(=O)c3ccc(C(F)(F)F)cc3)CC2)c1 [Compound 54, 4-(3,5-Dimethylphenoxy)-3-(4-(4-(trifluoromethyl)benzoyl)piperazin-1-ylsulfonyl)benzonitrile] | > 5 µM
Cc1cc(C)cc(Oc2ccc(C#N)cc2S(=O)(=O)N2CCN(C(=O)c3ccccc3)CC2)c1 [Compound 55, 3-(4-Benzoylpiperazin-1-ylsulfonyl)-4-(3,5-dimethylphenoxy)benzonitrile] | > 5 µM
Cc1cc(C)cc(Oc2ccc(C#N)cc2S(=O)(=O)N2CCN(S(=O)(=O)CC(C)C)CC2)c1 [Compound 56, 4-(3,5-Dimethylphenoxy)-3-(4-(isobutylsulfonyl)piperazin-1-ylsulfonyl)benzonitrile] | > 5 µM
CCC(=O)N1CCN(S(=O)(=O)c2cc(C#N)ccc2Oc2cc(C)cc(C)c2)CC1 [Compound 57, 4-(3,5-dimethylphenoxy)-3-(4-propionylpiperazin-1-ylsulfonyl)benzonitrile] | 0.5 to 5 µM
Cc1cc(C)cc(Oc2ccc(C#N)cc2S(=O)(=O)N2CCN(S(=O)(=O)c3ccc(C(F)(F)F)cc3)CC2)c1 [Compound 60, 4-(3,5-dimethylphenoxy)-3-(4-(4-(trifluoromethyl)phenylsulfonyl)piperazin-1-ylsulfonyl)benzonitrile] | > 5 µM
Cc1cc(C)cc(Oc2ccc(C#N)cc2S(=O)(=O)N2CCN(C(=O)C3CCCCC3)CC2)c1 [Compound 65, 3-(4-(Cyclohexanecarbonyl)piperazin-1-ylsulfonyl)-4-(3,5-dimethylphenoxy)benzonitrile] | > 5 µM
Cc1cc(C)cc(Oc2ccc(C#N)cc2S(=O)(=O)N2CCN(C(=O)CC(C)C)CC2)c1 [Compound 66, 4-(3,5-Dimethylphenoxy)-3-(4-(3-methylbutanoyl)piperazin-1-ylsulfonyl)benzonitrile] | > 5 µM
Cc1cc(C)cc(Oc2ccc(C#N)cc2S(=O)(=O)N2CCN(C(=O)CC(C)(C)C)CC2)c1 [Compound 67, 3-(4-(3,3-Dimethylbutanoyl)piperazin-1-ylsulfonyl)-4-(3,5-dimethylphenoxy)benzonitrile] | > 5 µM
N#Cc1ccc(Oc2cc(Cl)cc(Cl)c2)c(S(=O)(=O)N2CCN(C(=O)c3ccccc3)CC2)c1 [Compound 70, 3-(4-Benzoylpiperazin-1-ylsulfonyl)-4-(3,5-dichlorophenoxy)benzonitrile] | ≤ 0.05 µM
N#Cc1ccc(Oc2cc(Cl)cc(Cl)c2)c(S(=O)(=O)N2CCN(C(=O)C3CCCC3)CC2)c1 [Compound 74, 3-(4-(Cyclopentanecarbonyl)piperazin-1-ylsulfonyl)-4-(3,5-dichlorophenoxy)benzonitrile] | > 5 µM
N#Cc1ccc(Oc2cc(Cl)cc(Cl)c2)c(S(=O)(=O)N2CCN(C(=O)c3ccc(Cl)cc3)CC2)c1 [Compound 78, 3-(4-(4-Chlorobenzoyl)piperazin-1-ylsulfonyl)-4-(3,5-dichlorophenoxy)benzonitrile] | 0.05 to 0.5 µM
Cc1ccc(C(=O)N2CCN(S(=O)(=O)c3cc(C#N)ccc3Oc3cc(Cl)cc(Cl)c3)CC2)cc1 [Compound 82, 4-(3,5-Dichlorophenoxy)-3-(4-(4-methylbenzoyl)piperazin-1-ylsulfonyl)benzonitrile] | 0.5 to 5 µM
Cc1ccccc1C(=O)N1CCN(S(=O)(=O)c2cc(C#N)ccc2Oc2cc(Cl)cc(Cl)c2)CC1 [Compound 83, 4-(3,5-Dichlorophenoxy)-3-(4-(2-methylbenzoyl)piperazin-1-ylsulfonyl)benzonitrile] | 0.5 to 5 µM

The remaining lines, values ahead:

Ki | SMILES
> 5 µM | Cc1cc(C)cc(Oc2ccc(C#N)cc2S(=O)(=O)N2CCN(S(C)(=O)=O)CC2)c1 [Compound 52, 4-(3,5-Dimethylphenoxy)-3-(4-(methylsulfonyl)piperazin-1-ylsulfonyl)benzonitrile]
> 5 µM | Cc1ccc(S(=O)(=O)N2CCN(S(=O)(=O)c3cc(C#N)ccc3Oc3cc(C)cc(C)c3)CC2)cc1 [Compound 53, 4-(3,5-Dimethylphenoxy)-3-(4-tosylpiperazin-1-ylsulfonyl)benzonitrile]
0.05 to 0.5 µM | Cc1cc(C)cc(Oc2ccc(C#N)cc2S(=O)(=O)N2CCN(C(=O)NC(C)C)CC2)c1 [Compound 58, 4-(5-cyano-2-(3,5-dimethylphenoxy)phenylsulfonyl)-N-isopropylpiperazine-1-carboxamide]
> 5 µM | CCC(C)(C)C(=O)N1CCN(S(=O)(=O)c2cc(C#N)ccc2Oc2cc(C)cc(C)c2)CC1 [Compound 59, 3-(4-(2,2-Dimethylbutanoyl)piperazin-1-ylsulfonyl)-4-(3,5-dimethylphenoxy)benzonitrile]
> 5 µM | Cc1cc(C)cc(Oc2ccc(C#N)cc2S(=O)(=O)N2CCN(C(=O)Nc3cccc(F)c3)CC2)c1 [Compound 61, 4-(5-Cyano-2-(3,5-dimethylphenoxy)phenylsulfonyl)-N-(3-fluorophenyl)piperazine-1-carboxamide]
> 5 µM | CCc1ccc(NC(=O)N2CCN(S(=O)(=O)c3cc(C#N)ccc3Oc3cc(C)cc(C)c3)CC2)cc1 [Compound 62, 4-(5-Cyano-2-(3,5-dimethylphenoxy)phenylsulfonyl)-N-(4-ethylphenyl)piperazine-1-carboxamide]
> 5 µM | Cc1cc(C)cc(Oc2ccc(C#N)cc2S(=O)(=O)N2CCN(C(=O)C(C)(C)C)CC2)c1 [Compound 63, 4-(3,5-Dimethylphenoxy)-3-(4-pivaloylpiperazin-1-ylsulfonyl)benzonitrile]
> 5 µM | Cc1cc(C)cc(Oc2ccc(C#N)cc2S(=O)(=O)N2CCN(C(=O)C3CCC3)CC2)c1 [Compound 64, 3-(4-(Cyclobutanecarbonyl)piperazin-1-ylsulfonyl)-4-(3,5-dmethylphenoxy)benzonitrile]
> 5 µM | Cc1cc(C)cc(Oc2ccc(C#N)cc2S(=O)(=O)N2CCN(C(=O)C3CCCC3)CC2)c1 [Compound 68, 3-(4-(Cyclopentanecarbonyl)piperazin-1-ylsulfonyl)-4-(3,5-dimethylphenoxy)benzonitrile]
> 5 µM | N#Cc1ccc(Oc2cc(Cl)cc(Cl)c2)c(S(=O)(=O)N2CCN(C(=O)c3ccc(C(F)(F)F)cc3)CC2)c1 [Compound 69, 4-(3,5-Dichlorophenoxy)-3-(4-(4-(trifluoromethyl)benzoyl)piperazin-1-ylsulfonyl)benzonitrile]
> 5 µM | CC(C)(C)CC(=O)N1CCN(S(=O)(=O)c2cc(C#N)ccc2Oc2cc(Cl)cc(Cl)c2)CC1 [Compound 71, 4-(3,5-Dichlorophenoxy)-3-(4-(3,3-dimethylbutanoyl)piperazin-1-ylsulfonyl)benzonitrile]
0.5 to 5 µM | CC(C)CC(=O)N1CCN(S(=O)(=O)c2cc(C#N)ccc2Oc2cc(Cl)cc(Cl)c2)CC1 [Compound 72, 4-(3,5-Dichlorophenoxy)-3-(4-(3-methylbutanoyl)piperazin-1-ylsulfonyl)benzonitrile]
> 5 µM | N#Cc1ccc(Oc2cc(Cl)cc(Cl)c2)c(S(=O)(=O)N2CCN(C(=O)C3CCC3)CC2)c1 [Compound 73, 3-(4-(Cyclobutanecarbonyl)piperazin-1-ylsulfonyl)-4-(3,5-dichlorophenoxy)benzonitrile]
≤ 0.05 µM | N#Cc1ccc(Oc2cc(Cl)cc(Cl)c2)c(S(=O)(=O)N2CCN(C(=O)Nc3cccc(F)c3)CC2)c1 [Compound 75, 4-(5-Cyano-2-(3,5-dichlorophenoxy)phenylsulfonyl)-N-(3-fluorophenyl)piperazine-1-carboxamide]
≤ 0.05 µM | CS(=O)(=O)N1CCN(S(=O)(=O)c2cc(C#N)ccc2Oc2cc(Cl)cc(Cl)c2)CC1 [Compound 76, 4-(3,5-Dichlorophenoxy)-3-(4-(methylsulfonyl)piperazin-1-ylsulfonyl)benzonitrile]
≤ 0.05 µM | Cc1ccc(S(=O)(=O)N2CCN(S(=O)(=O)c3cc(C#N)ccc3Oc3cc(Cl)cc(Cl)c3)CC2)cc1 [Compound 77, 4-(3,5-Dichlorophenoxy)-3-(4-tosylpiperazin-1-ylsulfonyl)benzonitrile]
≤ 0.05 µM | Cc1cccc(C(=O)N2CCN(S(=O)(=O)c3cc(C#N)ccc3Oc3cc(Cl)cc(Cl)c3)CC2)c1 [Compound 79, 4-(3,5-Dichlorophenoxy)-3-(4-(3-methylbenzoyl)piperazin-1-ylsulfonyl)benzonitrile]
0.5 to 5 µM | CC(C)NC(=O)N1CCN(S(=O)(=O)c2cc(C#N)ccc2Oc2cc(Cl)cc(Cl)c2)CC1 [Compound 80, 4-(5-Cyano-2-(3,5-dichlorophenoxy)phenylsulfonyl)-N-isopropylpiperazine-1-carboxamide]
0.5 to 5 µM | N#Cc1ccc(Oc2cc(Cl)cc(Cl)c2)c(S(=O)(=O)N2CCN(C(=O)c3cccc(Cl)c3)CC2)c1 [Compound 81, 3-(4-(3-Chlorobenzoyl)piperazin-1-ylsulfonyl)-4-(3,5-dichlorophenoxy)benzonitrile]
0.5 to 5 µM | N#Cc1ccc(Oc2cc(Cl)cc(Cl)c2)c(S(=O)(=O)N2CCN(C(=O)c3ccccc3Cl)CC2)c1 [Compound 84, 3-(4-(2-Chlorobenzoyl)piperazin-1-ylsulfonyl)-4-(3,5-dichlorophenoxy)benzonitrile]
